Source: patent publication US7109193B2, “Tricyclic diazepines tocolytic oxytocin receptor antagonists” (Wyeth, priority 2001, dated 2006)

Target: T1, human vasopressin V2 receptor subtype (Homo sapiens, UniProt P30518)
T1 construct: host or cells: CHO cells (pZeoSV vector)
Assay: Vasopressin binding in Chinese Hamster Ovary cell membranes expressing human vasopressin V2 subtype receptors
Details: CHO cell membranes, [3H]arginine vasopressin; for IC50: values in parentheses; for inhibition at 0.1 µM: 100 nM, values without parentheses
Procedure, shortened: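 Radioligand displacement on membranes from CHO cells stably expressing human V2 receptor, 25 to 50 μg protein/well, in 50 mM Tris-HCl pH 7.4 with MgCl2, BSA and protease inhibitors. [^3H]arginine vasopressin (8 nM working solution) incubated 60 min at room temperature; bound label measured by filtration and scintillation counting.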

T1 sequence (P30518 whole entry): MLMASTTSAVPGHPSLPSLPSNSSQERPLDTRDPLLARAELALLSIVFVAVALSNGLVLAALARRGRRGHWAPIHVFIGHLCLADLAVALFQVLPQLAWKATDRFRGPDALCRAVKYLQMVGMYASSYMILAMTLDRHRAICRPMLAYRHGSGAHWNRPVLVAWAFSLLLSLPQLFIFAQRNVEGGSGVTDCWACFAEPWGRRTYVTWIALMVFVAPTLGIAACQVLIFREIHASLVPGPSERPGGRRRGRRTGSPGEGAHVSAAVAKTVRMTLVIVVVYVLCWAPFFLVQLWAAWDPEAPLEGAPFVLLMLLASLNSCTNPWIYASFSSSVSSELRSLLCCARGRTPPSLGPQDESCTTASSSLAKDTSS

Row | IC50 | inhibition at 0.1 µM | Compound
1 | 812 nM |  | COc1cc(-c2ccccc2C)c(Cl)cc1C(=O)N1Cc2ccc(C(=O)N3CC[C@@H](N(C)C)C3)n2Cc2ccccc21 [Example 273, {10-[(6-Chloro-3-methoxy-2′-methyl[1,1′-biphenyl]-4-yl)carbonyl]-10,11-dihydro-5H-pyrrolo[2,1-c][1,4]benzodiazepin-3-yl}[(3R)-3-(dimethylamino)pyrrolidinyl]methanone]
2 | 833 nM |  | C=CCN1CCN(C(=O)c2ccc3n2Cc2ccccc2N(C(=O)c2ccc(-c4ccccc4OC)cc2)C3)CC1 [Example 221, (4-Allyl-1-piperazinyl){10-[(2′-methoxy[1,1′-biphenyl]4-yl)carbonyl]-10,11-dihydro-5H -pyrrolo[2,1-c][1,4]benzodiazepin-3-yl}methanone]
3 | 1700 nM |  | COc1cc(-c2ccccc2C)c(Cl)cc1C(=O)N1Cc2ccc(C(=O)N(C)CCN(C)C)n2Cc2ccccc21 [Example 86, 10-[(6-Chloro-3-methoxy-2′-methyl[1,1′-biphenyl]-4-yl)carbonyl]-N-[2-(dimethylamino)ethyl]-N-methyl-10,11-dihydro-5H-pyrrolo[2,1-c][1,4]benzodiazepine-3-carboxamide]
4 | 1680 nM |  | COc1cccc(-c2ccc(C(=O)N3Cc4ccc(C(=O)N5CC[C@@H](N(C)C)C5)n4Cc4ccccc43)cc2C)c1 [Example 278, [(3R)-3-(Dimethylamino)pyrrolidinyl]{10-[(3′-methoxy-2-methyl[1,1′-biphenyl]-4-yl)carbonyl]-10,11-dihydro-5H-pyrrolo[2,1-c][1,4]benzodiazepin-3-yl}methanone]
5 |  | 13% | COc1cccc(-c2ccc(C(=O)N3Cc4ccc(C(=O)N(C)CCN(C)C)n4Cc4ccccc43)cc2C)c1 [Example 89, N-[2-(Dimethylamino)ethyl]-10-[(3′-methoxy-2-methyl[1,1′-biphenyl]-4-yl)carbonyl]-N-methyl-10,11-dihydro-5H-pyrrolo[2,1-c][1,4]benzodiazepine-3-carboxamide]
6 | 2000 nM |  | Cc1cc(C(=O)N2Cc3ccc(C(=O)N(C)CCCN(C)C)n3Cc3ccccc32)ccc1-c1ccccc1C(F)(F)F [Example 97, N-[3-(Dimethylamino)propyl]-N-methyl-10-{[2-methyl-2′-(trifluoromethyl)[1,1′-biphenyl]-4-yl]carbonyl}-10,11-dihydro-5H-pyrrolo[2,1-c][1,4]benzodiazepine-3-carboxamide]
7 | 423 nM |  | COc1ccccc1-c1ccc(C(=O)N2Cc3ccc(C(=O)N4CCN(CCCN(C)C)CC4)n3Cc3ccccc32)cc1C [Example 245, {4-[3-(Dimethylamino)propyl]-1-piperazinyl}{10-[(2′-methoxy-2-methyl[1,1′-biphenyl]-4-yl)carbonyl]-10,11-dihydro-5H-pyrrolo[2,1-c][1,4]benzodiazepin-3-yl}methanone]
8 | 58.8 nM |  | O=C(c1ccc(-c2cccc3ccccc23)nc1)N1Cc2cccn2Cc2ccccc21 [Example 28, [6-(Naphthalen-1-yl)-pyridin-3-yl]-[10,11-dihydro-5H-pyrrolo[2,1-c][1,4]benzodiazepin-10-yl]methanone]
9 |  | 7% | Cc1ccccc1-c1ccc(C(=O)N2Cc3ccc(C(=O)N(C)CCCN(C)C)n3Cc3ccccc32)cc1C [Example 101, N-[3-(Dimethylamino)propyl]-10-[(2,2′-dimethyl[1,1′-biphenyl]-4-yl)carbonyl]-N-methyl-10,11-dihydro-5H-pyrrolo[2,1-c][1,4]benzodiazepine-3-carboxamide]
10 | 855 nM |  | Cc1cc(C(=O)N2Cc3ccc(C(=O)N4CCN(CCN(C)C)CC4)n3Cc3ccccc32)ccc1-c1ccccc1C(F)(F)F [Example 196, {4-[2-(Dimethylamino)ethyl]-1-piperazinyl}(10-{[2-methyl-2′-(trifluoromethyl)[1,1′-biphenyl]-4-yl]carbonyl}-10,11-dihydro-5H-pyrrolo[2,1-c][1,4]benzodiazepin-3-yl)methanone]
